From publication PMC6481137, “Identification of Chinese Herbal Compounds with Potential as JAK3 Inhibitors” (Evidence-based Complementary and Alternative Medicine : eCAM, 2019)

Target: T1, JAK3 kinase (Homo sapiens, UniProt P52333)
T1 construct: JAK3 kinase domain (amino acids 781 to 1124)
Test: ELISA kinase assay, poly(Glu,Tyr) substrate, […] ATP
Assay type: biochemical

T1 sequence (P52333 781-1124): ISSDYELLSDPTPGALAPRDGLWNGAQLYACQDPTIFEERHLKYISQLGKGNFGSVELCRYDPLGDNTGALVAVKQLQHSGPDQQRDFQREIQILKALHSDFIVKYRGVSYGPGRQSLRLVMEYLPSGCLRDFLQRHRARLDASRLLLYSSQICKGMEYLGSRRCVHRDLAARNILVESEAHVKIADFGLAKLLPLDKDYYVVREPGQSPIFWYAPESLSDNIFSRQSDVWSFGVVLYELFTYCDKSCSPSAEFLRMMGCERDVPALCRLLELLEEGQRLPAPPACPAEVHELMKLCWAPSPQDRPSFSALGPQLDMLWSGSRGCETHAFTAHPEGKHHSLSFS

`C[C@H]1COC2=C1C(=O)C(=O)c1c2ccc2c1CCCC2(C)C` [CRY, Cryptotanshinone] gave an IC50 of about 25 µM.
In the case of `COc1ccc(-c2oc3c(CC=C(C)C)c(O)cc(O)c3c(=O)c2O)cc1` [ICA, Icaritin], the IC50 is reported as about 20 µM.
`O=C1Nc2ccccc2/C1=C1/Nc2ccccc2C1=O` [IND, Indirubin] showed an IC50 of about 50 µM.
